Laboratory results reported in patent US8962659B2, “Phenoxyethyl piperidine compounds” (Eli Lilly and Company, priority 2012, dated 2015).
Structures can show the parent of a compound that is named as a salt.

Tests used:
human EP1 = human EP1 (Homo sapiens (Human), UniProt P34995); test: In vitro binding to human EP1 ([3H]-PGE2 displacement, membranes); conditions: [3H]-PGE2, HEK293 membranes; read-out: hEP1, Ki
Method: (§1) hEP1 and hEP4 membranes are prepared from recombinant HEK293 cells stably expressing the human EP1 (Genbank accession number AY275470) or EP4 (Genbank accession number AY429109) receptors. hEP2 and hEP3 membranes are prepared from HEK293 cells transiently transfected with EP2 (Genbank accession number AY275471) or EP3 (isoform VI: Genbank accession number AY429108) receptor plasmids. Frozen cell pellets are homogenized in homogenization buffer using a Teflon/glass homogenizer. Membrane protein is aliquoted and quick frozen on dry ice prior to storage at -80° C. Homogenization buffer contained 10 mM Tris-HCl, pH 7.4, 250 mM sucrose, 1 mM EDTA, 0.3 mM indomethacin and plus CompleteTM, with EDTA, obtained from Roche Molecular Biochemicals (Catalog Number 1 697 498). Kd values for [3H]-PGE2 binding to each receptor are determined by saturation binding studies or homologous competition. […] Nonspecific binding is calculated by comparing binding in the presence and absence of 2 μM of PGE2. The membranes are harvested by filtration (TomTek harvester), washed 4 times with cold buffer (10 mM MES pH 6.0 with KOH, 10 mM MgCl2), dried in a 60° C. oven, and the radioactivity is quantified as counts per minute (CPM) using a TopCount detector. Percent specific binding is calculated as the percent of the binding in the absence of any inhibitor, corrected for binding in the presence of 2 μM of PGE2.

human EP2 = human EP2 (Homo sapiens (Human), UniProt P43116); test: In vitro binding to human EP2 ([3H]-PGE2 displacement, membranes); conditions: [3H]-PGE2, HEK293 membranes; n = 3; read-out: hEP2, Ki
Method: as §1

human EP3 (isoform VI) = human EP3 (isoform VI) (Homo sapiens (Human), UniProt P43115); test: In vitro binding to human EP3 ([3H]-PGE2 displacement, membranes); conditions: [3H]-PGE2, HEK293 membranes; read-out: hEP3, Ki
Method: as §1

rat EP4 = rat EP4 (Rattus norvegicus (Rat), UniProt P43114); test: In vitro rat EP4 functional antagonist activity (PGE2-stimulated cAMP, HTRF, HEK293); format: cell-based; conditions: inhibition of PGE2 (EC80)-stimulated cAMP, read-out: IC50 measured at rat EP4
Sequence of rat EP4 (P43114 whole entry): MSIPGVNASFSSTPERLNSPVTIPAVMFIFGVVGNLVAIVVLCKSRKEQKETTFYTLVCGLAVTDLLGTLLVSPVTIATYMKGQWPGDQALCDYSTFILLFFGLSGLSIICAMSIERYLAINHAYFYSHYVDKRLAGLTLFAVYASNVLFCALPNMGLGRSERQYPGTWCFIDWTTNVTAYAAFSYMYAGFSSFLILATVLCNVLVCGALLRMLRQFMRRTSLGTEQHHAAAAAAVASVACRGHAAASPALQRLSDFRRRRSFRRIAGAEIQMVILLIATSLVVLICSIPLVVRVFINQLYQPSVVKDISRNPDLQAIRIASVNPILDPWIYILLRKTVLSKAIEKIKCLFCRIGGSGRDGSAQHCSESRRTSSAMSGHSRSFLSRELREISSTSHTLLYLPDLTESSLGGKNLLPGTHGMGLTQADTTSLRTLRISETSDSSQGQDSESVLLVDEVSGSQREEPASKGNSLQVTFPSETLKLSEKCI
Method: Rat EP4 cDNA (Genebank Accession# NM—03276) is cloned into pcDNA 3.1 vector and subsequently transfected in HEK293 cells for receptor expression. Rat EP4 stable clone is scaled up and then frozen down as cell bank for future compounds screening. To test EP4 antagonist compounds in rEP4 cells, thaw the frozen cells and then resuspend cells in cAMP assay buffer. […] The cells are plated into 96-well half area flat-bottom polystyrene black plates (Costar 3694). […] Then diluted compounds are added into cAMP assay buffer which contains PGE2 (Cayman 14010, in a concentration predetermined to produce an EC80) at ratio of DMSO/buffer at 1/100. The cells are treated with compounds in the presence of PGE2 (EC80 concentration) for 30 minutes at room temperature. The cAMP levels generated from the cells are quantified by a cAMP HTRF assay kit (Cisbio 62AM4PEC). The plates are read on an EnVision plate reader using HTRF optimized protocol (PerkinElmer). IC50s are calculated using Graphpad Prism (v. 4) nonlinear regression, sigmoidal dose response curve fitting.

Sequence of human EP1 (P34995 whole entry, canonical isoform): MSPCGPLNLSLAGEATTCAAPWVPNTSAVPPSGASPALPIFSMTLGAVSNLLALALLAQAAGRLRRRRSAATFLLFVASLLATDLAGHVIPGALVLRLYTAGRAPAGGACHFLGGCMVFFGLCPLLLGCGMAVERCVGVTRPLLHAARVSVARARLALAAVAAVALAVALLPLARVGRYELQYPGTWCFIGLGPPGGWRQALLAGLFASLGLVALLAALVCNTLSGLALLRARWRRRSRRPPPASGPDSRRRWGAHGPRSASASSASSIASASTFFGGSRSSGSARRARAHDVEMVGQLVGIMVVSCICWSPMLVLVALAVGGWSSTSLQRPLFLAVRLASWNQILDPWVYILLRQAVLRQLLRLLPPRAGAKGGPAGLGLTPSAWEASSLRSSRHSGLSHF
Sequence of human EP3 (isoform VI) (P43115 other isoform, or with tags, fused parts or gaps isoform P43115-4): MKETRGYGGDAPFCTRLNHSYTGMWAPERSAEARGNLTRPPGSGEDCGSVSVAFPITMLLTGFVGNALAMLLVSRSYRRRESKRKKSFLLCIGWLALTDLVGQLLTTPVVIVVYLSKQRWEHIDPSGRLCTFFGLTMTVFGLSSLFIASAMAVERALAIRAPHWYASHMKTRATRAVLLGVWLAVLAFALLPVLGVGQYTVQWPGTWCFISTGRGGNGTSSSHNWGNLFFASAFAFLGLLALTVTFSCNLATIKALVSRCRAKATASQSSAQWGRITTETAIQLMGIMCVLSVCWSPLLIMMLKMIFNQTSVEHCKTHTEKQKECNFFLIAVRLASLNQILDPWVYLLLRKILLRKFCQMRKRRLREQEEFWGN
Sequence of human EP2 (P43116 whole entry): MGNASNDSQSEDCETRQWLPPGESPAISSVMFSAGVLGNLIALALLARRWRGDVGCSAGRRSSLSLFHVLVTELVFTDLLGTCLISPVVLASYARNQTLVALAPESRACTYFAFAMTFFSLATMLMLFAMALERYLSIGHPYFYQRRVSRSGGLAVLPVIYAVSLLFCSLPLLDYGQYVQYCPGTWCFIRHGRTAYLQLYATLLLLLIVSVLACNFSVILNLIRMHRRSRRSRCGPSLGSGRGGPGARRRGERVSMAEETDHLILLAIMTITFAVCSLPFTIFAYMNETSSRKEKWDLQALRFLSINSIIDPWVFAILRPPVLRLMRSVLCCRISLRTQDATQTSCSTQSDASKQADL

- Ki (human EP1): > 17500 nM
- Ki (human EP2): 1550 ± 1860 nM
- Ki (human EP3 (isoform VI)): > 14000 nM
- IC50 (rat EP4): 15 nM
Compound: C[C@H](NC(=O)[C@H]1CCCCN1CCOc1ccccc1)c1ccc(C(=O)O)cc1 [Example 1, 4-[(1S)-1-[[(2R)-1-(2-phenoxyethyl)piperidine-2-carbonyl]amino]ethyl]benzoic acid hydrochloride]
